Test results reported in ChEMBL document CHEMBL1128088, “Synthesis and activity of cereulide, a cyclic dodecadepsipeptide ionophore as emetic toxin from Bacillus cereus” (1995).

Experiments:
HEp-2 = assay: Effect on vacuole response in the HEp-2 cells; format: functional, Homo sapiens
Suncus murinus [1] = assay: Effect on number of vomiting episodes at dose 16 ug/Kg administered ip; format: functional
Suncus murinus [2] = assay: Effect on number of suncus vomited at dose 16 ug/Kg administered po (out of 5); format: functional
Suncus murinus [3] = assay: Effect on latency at dose 16 ug/Kg administered po; format: functional
Suncus murinus [4] = assay: Effect on number of vomiting episodes at dose 8 ug/Kg administered ip; format: functional
Suncus murinus [5] = assay: Effect on latency at dose 8 ug/Kg administered ip; format: functional
Suncus murinus [6] = assay: Effect on number of suncus vomited at dose 16 ug/Kg administered ip (out of 5); format: functional
Suncus murinus [7] = assay: Effect on number of suncus vomited at dose 8 ug/Kg administered ip; format: functional
Suncus murinus [8] = assay: Effect on latency at dose 16 ug/Kg administered ip; format: functional
Suncus murinus [9] = assay: Effect on number of vomiting episodes at dose 32 ug/Kg administered po; format: functional
Suncus murinus [10] = assay: Effect on number of vomiting episodes at dose 16 ug/Kg administered po; format: functional
Suncus murinus [11] = assay: Effect on latency at dose 8 ug/Kg administered po; format: functional
Suncus murinus [12] = assay: Effect on number of suncus vomited at dose 32 ug/Kg administered po (out of 5); format: functional
Suncus murinus [13] = assay: Effect on latency at dose 32 ug/Kg administered po; format: functional
Suncus murinus [14] = assay: Effect on number of suncus vomited at dose 8 ug/Kg administered po (out of 5); format: functional
Suncus murinus [15] = assay: Effect on number of suncus vomited at dose 4 ug/Kg administered ip (out of 5); format: functional
Suncus murinus [16] = assay: Effect on latency at dose 4 ug/Kg administered ip; format: functional
Suncus murinus [17] = assay: Effect on number of suncus vomited at dose 8 ug/Kg administered ip (out of 5); format: functional
Suncus murinus [18] = assay: Effect on number of vomiting episodes at dose 32 ug/Kg administered ip; format: functional
Suncus murinus [19] = assay: Effect on number of suncus vomited at dose 32 ug/Kg administered ip (out of 5); format: functional
Suncus murinus [20] = assay: Effect on number of vomiting episodes at dose 8 ug/Kg administered po; format: functional
Suncus murinus [21] = assay: Effect on number of suncus vomited at dose 2 ug/Kg administered ip (out of 3); format: functional
Suncus murinus [22] = assay: Effect on latency at dose 32 ug/Kg administered ip; format: functional
Suncus murinus [23] = assay: Effect on number of vomiting episodes at dose 4 ug/Kg administered ip; format: functional
Suncus murinus [24] = assay: Effect on number of suncus vomited at dose 4 ug/Kg administered po (out of 5); format: functional

CC(=O)OC[C@@H](C)NC(=O)[C@@H](CC(C)C)OC(=O)[C@@H](NC(=O)[C@@H](OC(=O)[C@@H](C)NC(=O)[C@@H](CC(C)C)OC(=O)[C@@H](NC(=O)[C@@H](OC(=O)[C@@H](C)NC(=O)[C@@H](CC(C)C)OC(=O)[C@@H](NC(=O)[C@@H](OC(C)=O)C(C)C)C(C)C)C(C)C)C(C)C)C(C)C)C(C)C
Vacuole response (HEp-2): >20000 ng/mL

CC(C)C[C@@H]1OC(=O)[C@H](C(C)C)NC(=O)[C@@H](C(C)C)OC(=O)[C@@H](C)NC(=O)[C@H](CC(C)C)OC(=O)[C@H](C(C)C)NC(=O)[C@@H](C(C)C)OC(=O)[C@@H](C)NC(=O)[C@H](CC(C)C)OC(=O)[C@H](C(C)C)NC(=O)[C@@H](C(C)C)OC(=O)[C@@H](C)NC1=O (stereo in doubt; form 2)
No. of vomiting episodes (Suncus murinus [1]): 10.3
No. of suncus vomited (Suncus murinus [2]): 3
Latency (Suncus murinus [3]): 8.3 min
No. of vomiting episodes (Suncus murinus [4]): 5
Latency (Suncus murinus [5]): 7 min
No. of suncus vomited (Suncus murinus [6]): 5
No. of suncus vomited (Suncus murinus [7]): 1
Latency (Suncus murinus [8]): 6 min
No. of vomiting episodes (Suncus murinus [9]): 7.6
No. of vomiting episodes (Suncus murinus [10]): 6.3
Latency (Suncus murinus [11]): 6 min
No. of suncus vomited (Suncus murinus [12]): 5
Latency (Suncus murinus [13]): 8.2 min
No. of suncus vomited (Suncus murinus [14]): 0
Vacuole response (HEp-2): 3 ng/mL
No. of suncus vomited (Suncus murinus [15]): 0

CC(C)C[C@@H]1OC(=O)[C@H](C(C)C)NC(=O)[C@@H](C(C)C)OC(=O)[C@@H](C)NC(=O)[C@H](CC(C)C)OC(=O)[C@H](C(C)C)NC(=O)[C@@H](C(C)C)OC(=O)[C@@H](C)NC(=O)[C@H](CC(C)C)OC(=O)[C@H](C(C)C)NC(=O)[C@@H](C(C)C)OC(=O)[C@@H](C)NC1=O (stereo in doubt; form 1)
No. of vomiting episodes (Suncus murinus [1]): 7.3
Latency (Suncus murinus [3]): 6.3 min
Latency (Suncus murinus [16]): 15 min
No. of suncus vomited (Suncus murinus [17]): 2
No. of vomiting episodes (Suncus murinus [18]): 8.4
No. of suncus vomited (Suncus murinus [19]): 5
No. of vomiting episodes (Suncus murinus [4]): 6.8
Latency (Suncus murinus [5]): 5.7 min
No. of suncus vomited (Suncus murinus [6]): 3
Latency (Suncus murinus [8]): 5.3 min
No. of vomiting episodes (Suncus murinus [9]): 7
No. of vomiting episodes (Suncus murinus [10]): 5.3
No. of vomiting episodes (Suncus murinus [20]): 3
No. of suncus vomited (Suncus murinus [21]): 0
Latency (Suncus murinus [22]): 5.9 min
Latency (Suncus murinus [13]): 4.4 min
No. of suncus vomited (Suncus murinus [14]): 1
Vacuole response (HEp-2): 5 ng/mL
No. of vomiting episodes (Suncus murinus [23]): 4
No. of suncus vomited (Suncus murinus [15]): 1
No. of suncus vomited (Suncus murinus [24]): 0

CC(C)C[C@@H](OC(=O)[C@@H](NC(=O)[C@@H](O)C(C)C)C(C)C)C(=O)N[C@H](C)C(=O)O[C@H](C(=O)N[C@H](C(=O)O[C@H](CC(C)C)C(=O)N[C@H](C)C(=O)O[C@H](C(=O)N[C@H](C(=O)O[C@H](CC(C)C)C(=O)N[C@H](C)C(=O)O)C(C)C)C(C)C)C(C)C)C(C)C
Vacuole response (HEp-2): 12000 ng/mL
